# Experimental data taken from publication PMC11352039, “Isolation and Characterization of Antioxidant Peptides from Dairy Cow (Bos taurus) Placenta and Their Antioxidant Activities” (Antioxidants, 2024).
# Like-named read-outs stand apart in the source and are kept apart here.
# Tests used:
# [1] = tested on: RAW264.7 cells; experiment: Survival of normal cells (MTS); assay type: cell-based; settings: 24 h
# Procedure: Pre-cultured RAW264.7 cells were allocated into groups C, CP1, and CP2. Group C received 100 μL of complete medium, while groups CP1 and CP2 were supplemented with 100 μL of complete medium containing CP1 and CP2, respectively, at final concentrations of 1.25, 2.5, 5, 10, 20, and 40 μg/mL. The cells were then incubated for 24 h before discarding the medium. Cell viability was assessed using the MTS method to identify non-toxic concentration ranges for subsequent experiments.
# [2] = Antioxidant stability under simulated digestion; assay type: in vitro ADME; settings: simulated GI (gastrointestinal) digestion versus G digestion; not significant (p > 0.05)
# Description: We refer to Chai et al. and Gallego et al. methods to evaluate the antioxidant stability of AOPs at different temperatures, pH levels, and simulated digestion conditions.
# [3] = cited from earlier work
# Description: AOP antioxidant activity is primarily assessed through chemical and cell modeling methods. The chemical method for evaluating AOP antioxidant activity can be categorized into two main types: hydrogen atom transfer and electron transfer. In assays such as hydroxyl and DPPH radical scavenging, AOP transforms free radicals into anions via electron transfer. Moreover, in the lipid peroxidation inhibition assay, AOP hinders lipid peroxidation by releasing hydrogen atoms, thereby deactivating free radicals.
# [4] = cited from earlier work; for DPPH free-radical scavenging IC50: AOPs from skipjack tuna protein extract
# Description: The virtual screening method, employing peptide affinity for Keap1 as a screening parameter, exclusively confirms the capability of CP1 to activate the Keap1/Nrf2 pathway. On the other hand, the chromatographic method, utilizing the free-radical scavenging rate as a screening metric, solely validates the ability of CP2 to scavenge free radicals. […] The chemical method for evaluating AOP antioxidant activity can be categorized into two main types: hydrogen atom transfer and electron transfer. In assays such as hydroxyl and DPPH radical scavenging, AOP transforms free radicals into anions via electron transfer. Moreover, in the lipid peroxidation inhibition assay, AOP hinders lipid peroxidation by releasing hydrogen atoms, thereby deactivating free radicals.
# [5] = tested on: RAW264.7 cells; settings: MTS; for cell survival rate: mean ± SD
# Procedure: RAW264.7 cells were cultured in a 5% CO2 environment at 37 °C using a specific complete medium (DMEM (PM150210) + 10% FBS (164210-50) + 1%P/S (PB180120)) designed for RAW264.7 cells. Cells in the logarithmic growth phase were harvested and seeded into 96-well plates at a density of 1 × 10^5 cells/mL per well with 100 μL of inoculation volume. Subsequently, the plates were pre-cultured for 12 h at 37 °C in a 5% CO2 atmosphere, following which the medium was removed.
# The pre-cultured RAW264.7 cells were then divided into control (C) and model (M) groups. Then, 100 μL of complete medium was added to group C, and 100 μL of complete medium containing concentrations of 250, 300, 350, 400, and 450 μmol/L H2O2 was added to group M. After continuing the incubation for 6 h, the medium was discarded. Cell viability was assessed using the MTS method. The optimal H2O2 concentration for inducing the oxidative stress model was determined when cell viability decreased to 50%, ensuring that the cells maintained a specific viability level while meeting the damage criteria.
compound,measurement,setting,value
H-ANNGKQWAEVF-OH [CP1],cell viability of normal cells versus group C,"[1]; RAW264.7, 40.00 μg/mL",significantly lower than that of group C
same,cell viability of normal cells versus group C,"[1]; RAW264.7, 1.25 to 20.00 μg/mL",did not show a significant difference compared to group C
same,reduction of free-radical scavenging rate,[2],38.64%
"YGPEP [sheepskin AOP, literature]",IC50 lipid peroxidation inhibition rate,[3]; sheepskin AOP,3940 µg/mL
YFLWP,IC50 DPPH radical scavenging,[4]; yellow croaker AOP,1590 µg/mL
same,IC50 hydroxyl radical scavenging,[3]; yellow croaker AOP,2470 µg/mL
"LCGEC [tuna AOP, literature]",DPPH radical scavenging rate,"[4]; 1 mg/mL, tuna AOP",16.83%
same,"DPPH radical scavenging rate, IC50",[4]; tuna AOP,exceeded 10 mg/mL
"QAEP [AOP from skipjack tuna protein extract, literature]",DPPH free-radical scavenging IC50,[4],1110 µg/mL
"EVGK [duck blood AOP, literature]",DPPH radical scavenging rate,"[4]; 0.5 mg/mL, duck blood AOP",26.63%
same,transition metal chelation rate,"[3]; 0.5 mg/mL, duck blood AOP",16.35%
"OO [Peptide H2O2, hydrogen peroxide]",cell activity,"[5]; RAW264.7, 200 μmol/L H2O2, 6 h",exceeded 90%
same,cell survival rate,"[5]; RAW264.7, 250 μmol/L H2O2, 6 h",83.51 ± 6.15%
same,cell survival rate,"[5]; RAW264.7, 300 μmol/L H2O2, 6 h",79.06 ± 3.21%
same,cell survival rate,"[5]; RAW264.7, 350 μmol/L H2O2, 6 h",64.73 ± 0.99%
same,cell survival rate,"[5]; RAW264.7, 400 μmol/L H2O2, 6 h",48.68 ± 5.48%
same,cell survival rate,"[5]; RAW264.7, 450 μmol/L H2O2, 6 h",26.10 ± 1.65%
H-QPGLPGPAG-OH [CP2],cell viability of normal cells versus group C,"[1]; RAW264.7, 40.00 μg/mL",significantly lower than that of group C
same,cell viability of normal cells versus group C,"[1]; RAW264.7, 1.25 to 20.00 μg/mL",did not show a significant difference compared to group C
same,reduction of free-radical scavenging rate,[2],34.01%
"QEAE [AOP from skipjack tuna protein extract, literature]",DPPH free-radical scavenging IC50,[4],1770 µg/mL
